Measured values as given in ChEMBL document CHEMBL4814021, “Synthesis, biological evaluation, and correlation of cytotoxicity versus redox potential of 1,4-naphthoquinone derivatives” (Bioorg Med Chem Lett, 2021).

Tests used:
HeLa = experiment: Cytotoxicity against human HeLa cells; type: functional, cell-based
DNA topoisomerase 1 = molecular target: T1, DNA topoisomerase 1 (Homo sapiens, UniProt P11387); experiment: Inhibition of DNA topoisomerase 1 (unknown origin)
T1 sequence (P11387 whole entry): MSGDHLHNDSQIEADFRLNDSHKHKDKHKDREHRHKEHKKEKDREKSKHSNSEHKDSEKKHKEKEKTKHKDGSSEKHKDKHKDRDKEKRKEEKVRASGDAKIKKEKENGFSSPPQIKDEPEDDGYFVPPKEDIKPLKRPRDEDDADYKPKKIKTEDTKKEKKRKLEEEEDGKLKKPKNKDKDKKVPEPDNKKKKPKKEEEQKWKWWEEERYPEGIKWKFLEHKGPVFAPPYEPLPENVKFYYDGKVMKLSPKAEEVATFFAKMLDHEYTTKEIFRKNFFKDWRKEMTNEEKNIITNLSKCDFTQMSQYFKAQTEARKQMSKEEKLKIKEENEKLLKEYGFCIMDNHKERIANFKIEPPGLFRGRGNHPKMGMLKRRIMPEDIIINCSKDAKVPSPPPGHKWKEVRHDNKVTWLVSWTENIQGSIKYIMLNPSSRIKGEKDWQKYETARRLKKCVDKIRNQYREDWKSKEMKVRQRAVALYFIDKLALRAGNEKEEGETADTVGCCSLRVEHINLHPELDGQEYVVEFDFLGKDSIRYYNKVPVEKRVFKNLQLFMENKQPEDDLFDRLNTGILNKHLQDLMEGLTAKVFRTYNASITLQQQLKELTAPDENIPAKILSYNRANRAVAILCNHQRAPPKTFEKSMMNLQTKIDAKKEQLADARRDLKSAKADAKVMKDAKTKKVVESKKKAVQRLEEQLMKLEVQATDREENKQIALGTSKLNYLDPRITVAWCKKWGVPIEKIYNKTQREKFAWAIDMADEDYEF

[1] = Redox potential of compound in phosphate buffer at pH 7.2 by cyclic voltammetry; type: physicochemical
KB = experiment: Cytotoxicity against human KB cells; type: functional, cell-based

Row | Structure (SMILES) | IC50 (DNA topoisomerase 1) [µM] | Activity [1] [V] | IC50 (HeLa) [µM] | IC50 (KB) [µM]
1 | COc1cccc2c1C(=O)C=CC2=O | 48 | -0.165 | 21.7 | 23.8
2 | CC(=O)Oc1cccc2c1C(=O)C=CC2=O | – | -0.208 | 6.48 | 1.39
3 | O=C1C=CC(=O)c2cc(O)ccc21 | – | -0.192 | 7.06 | 13.3
4 | COc1ccc2c(c1)C(=O)C=CC2=O | – | -0.196 | 22.7 | 33.9
5 | O=C(Oc1ccc2c(c1)C(=O)C=CC2=O)c1cccs1 | > 100 | -0.166 | 8.86 | 18.3
6 | Cc1ccc(S(=O)(=O)Oc2ccc3c(c2)C(=O)C=CC3=O)cc1 | > 100 | -0.154 | 15.1 | 16.4
7 | Cc1ccc(S(=O)(=O)Oc2cccc3c2C(=O)C=CC3=O)cc1 | – | -0.151 | 9.47 | 10.7
8 | CS(=O)(=O)Oc1cccc2c1C(=O)C=CC2=O | > 100 | -0.158 | 23.6 | 27.1
9 | CCOc1ccc2c(c1)C(=O)C=CC2=O | – | -0.197 | 25.1 | 21.4
10 | CC(=O)Oc1ccc2c(c1)C(=O)C=CC2=O | > 100 | -0.18 | 27.7 | 22.1
11 | C=CCOc1ccc2c(c1)C(=O)C=CC2=O | – | -0.194 | 27.2 | 10.2
12 | CS(=O)(=O)Oc1ccc2c(c1)C(=O)C=CC2=O | – | -0.15 | 17.7 | 11.6
13 | O=C1C=CC(=O)c2c(O)cccc21 [JUGLONE] | 8.26 | -0.204 | 15.7 | 6.55
14 | CC1=CC(=O)c2c(O)cccc2C1=O [PLUMBAGIN] | – | -0.346 | 10.2 | 9.83

The next lines start with results.

Row | IC50 (DNA topoisomerase 1) [µM] | Activity [1] [V] | Structure (SMILES) | IC50 (HeLa) [µM] | IC50 (KB) [µM]
15 | – | -0.304 | CCOC1=CC(=O)c2ccccc2C1=O | 23.8 | 16.9
16 | – | -0.16 | O=C1C=CC(=O)c2c(OCc3ccccc3)cccc21 | 13.8 | 8.48
17 | – | -0.146 | CS(=O)(=O)OC1=CC(=O)c2ccccc2C1=O | 7.61 | 7.18
18 | 53.7 | -0.207 | O=C1C=CC(=O)c2cc(OCc3ccccc3)ccc21 | 16.8 | 26.2
19 | – | -0.413 | C/C=C/C(=O)OC1=CC(=O)c2ccccc2C1=O | 37.9 | 64.2
20 | – | -0.368 | O=C(OC1=CC(=O)c2ccccc2C1=O)c1ccccc1 | 55 | 36.9
21 | – | -0.395 | O=C1C=C(Oc2ccco2)C(=O)c2ccccc21 | 37 | 53.4
22 | – | -0.213 | O=C(Oc1cccc2c1C(=O)C=CC2=O)c1ccco1 | 12.5 | 13.4
23 | > 100 | -0.212 | O=C(Oc1cccc2c1C(=O)C=CC2=O)c1cccs1 | 5.21 | 6.23
24 | – | -0.32 | CCCOC1=CC(=O)c2ccccc2C1=O | 51.6 | 49.4
25 | – | -0.413 | O=C(OC1=CC(=O)c2ccccc2C1=O)c1cccs1 | 35.3 | 41.5
26 | – | -0.305 | CCCCOC1=CC(=O)c2ccccc2C1=O | 35.3 | 27
27 | – | -0.165 | Cc1ccc(S(=O)(=O)OC2=CC(=O)c3ccccc3C2=O)cc1 | 12.2 | 18.8
28 | – | -0.416 | CC(=O)OC1=CC(=O)c2ccccc2C1=O | 62.1 | 38.8
29 | – | -0.174 | O=C(Oc1ccc2c(c1)C(=O)C=CC2=O)c1ccccc1 | 19.2 | 12.1
30 | > 100 | -0.16 | O=C(Oc1ccc2c(c1)C(=O)C=CC2=O)c1ccco1 | 17.2 | 15.8
31 | 90.6 | -0.208 | O=C(Oc1cccc2c1C(=O)C=CC2=O)c1ccccc1 | 13 | 6.47
32 | – | -0.305 | COC1=CC(=O)c2ccccc2C1=O [2-Methoxy-1,4-naphthoquinone] | 29.8 | 17.3
33 | – | -0.431 | O=C1C=C(O)C(=O)c2ccccc21 [LAWSONE] | 71.3 | 105
